pIC50: −log10 of the molar value.
What was measured:
[1] = target: T1, Aryl hydrocarbon receptor (Homo sapiens, UniProt P35869); assay: Antagonist activity at human AhR expressed in Saccharomyces cerevisiae W303-1A (ATCC 208352) transformed with an episomal plasmid containing a minimal CYC1 promoter, with a concatemer of five XRE enhancer sequences, linked to eGFP reporter gene and co-expressing ARNT assessed as inhibition of B[a]P agonist induced XRE-driven eGFP expression by measuring eGFP units at 10 uM after 18 hrs by …
T1 sequence (P35869 whole entry): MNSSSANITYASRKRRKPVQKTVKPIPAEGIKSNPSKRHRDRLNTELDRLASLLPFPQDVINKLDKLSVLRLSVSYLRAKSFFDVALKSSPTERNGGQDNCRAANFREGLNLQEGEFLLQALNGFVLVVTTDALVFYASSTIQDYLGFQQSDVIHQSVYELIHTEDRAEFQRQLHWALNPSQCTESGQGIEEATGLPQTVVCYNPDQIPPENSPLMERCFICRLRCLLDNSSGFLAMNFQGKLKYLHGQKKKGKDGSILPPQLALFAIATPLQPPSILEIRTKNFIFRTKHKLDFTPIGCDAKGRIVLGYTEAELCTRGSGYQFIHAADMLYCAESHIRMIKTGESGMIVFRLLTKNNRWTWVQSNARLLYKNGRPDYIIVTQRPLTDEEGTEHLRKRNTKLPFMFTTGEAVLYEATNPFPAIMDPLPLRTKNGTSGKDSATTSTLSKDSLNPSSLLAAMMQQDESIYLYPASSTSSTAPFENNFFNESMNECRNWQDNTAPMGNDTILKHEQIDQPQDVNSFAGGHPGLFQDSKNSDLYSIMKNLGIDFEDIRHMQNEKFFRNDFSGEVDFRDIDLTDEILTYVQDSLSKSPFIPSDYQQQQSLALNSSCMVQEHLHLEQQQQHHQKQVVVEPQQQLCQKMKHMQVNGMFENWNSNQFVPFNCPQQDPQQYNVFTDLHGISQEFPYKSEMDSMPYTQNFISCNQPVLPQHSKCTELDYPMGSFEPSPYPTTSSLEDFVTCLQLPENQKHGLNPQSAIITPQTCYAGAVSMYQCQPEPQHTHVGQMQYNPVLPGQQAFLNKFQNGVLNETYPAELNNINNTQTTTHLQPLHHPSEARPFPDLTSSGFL

Cytochrome P450 2D6 [2] = target: T2, Cytochrome P450 2D6 (Homo sapiens, UniProt P10635); assay: Inhibition of human CYP2D6 bound to yeast microsomal membrane using 7-ethoxy-methyloxy-3-cyanocoumarin as substrate after 10 mins by fluorescence assay; assay type: ADME
T2 sequence (P10635 whole entry): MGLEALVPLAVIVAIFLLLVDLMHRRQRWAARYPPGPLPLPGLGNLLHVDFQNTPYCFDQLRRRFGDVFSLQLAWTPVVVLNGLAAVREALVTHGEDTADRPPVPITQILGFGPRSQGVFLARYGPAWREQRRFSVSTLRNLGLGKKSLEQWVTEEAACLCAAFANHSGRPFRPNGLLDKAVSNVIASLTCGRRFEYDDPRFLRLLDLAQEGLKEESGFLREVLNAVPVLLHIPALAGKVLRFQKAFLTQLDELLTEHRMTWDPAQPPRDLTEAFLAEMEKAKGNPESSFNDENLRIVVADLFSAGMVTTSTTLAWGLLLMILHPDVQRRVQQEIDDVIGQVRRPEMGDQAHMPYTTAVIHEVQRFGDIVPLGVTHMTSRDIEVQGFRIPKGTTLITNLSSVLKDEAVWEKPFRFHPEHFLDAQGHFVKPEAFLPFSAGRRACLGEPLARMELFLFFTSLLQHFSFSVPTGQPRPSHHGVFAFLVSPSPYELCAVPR

Cytochrome P450 2C9 = Cytochrome P450 2C9 (Homo sapiens, UniProt P11712); assay: Inhibition of human CYP2C9 bound to yeast microsomal membrane using 3-cyano-7-ethoxycoumarin as substrate after 10 mins by fluorescence assay; assay type: ADME
Cytochrome P450 2C9, sequence (P11712 whole entry): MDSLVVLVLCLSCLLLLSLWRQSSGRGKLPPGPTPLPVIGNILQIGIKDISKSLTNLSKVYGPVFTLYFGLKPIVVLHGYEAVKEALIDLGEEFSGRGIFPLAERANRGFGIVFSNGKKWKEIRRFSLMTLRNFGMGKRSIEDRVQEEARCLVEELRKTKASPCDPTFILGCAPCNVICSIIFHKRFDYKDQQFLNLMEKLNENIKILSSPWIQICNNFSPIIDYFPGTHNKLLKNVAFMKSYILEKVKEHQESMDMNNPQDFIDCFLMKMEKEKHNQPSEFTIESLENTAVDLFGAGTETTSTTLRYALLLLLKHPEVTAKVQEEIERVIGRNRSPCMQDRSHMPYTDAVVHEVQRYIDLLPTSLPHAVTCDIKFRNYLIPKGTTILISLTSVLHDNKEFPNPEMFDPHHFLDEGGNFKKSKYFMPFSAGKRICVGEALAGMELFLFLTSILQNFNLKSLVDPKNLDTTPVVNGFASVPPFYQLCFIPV

Cytochrome P450 3A4 [3] = target: T3, Cytochrome P450 3A4 (Homo sapiens, UniProt P08684); assay: Inhibition of human CYP3A4 bound to yeast microsomal membrane using dibenzylfluorescein as substrate after 10 mins by fluorescence assay; assay type: ADME
T3 sequence (P08684 whole entry): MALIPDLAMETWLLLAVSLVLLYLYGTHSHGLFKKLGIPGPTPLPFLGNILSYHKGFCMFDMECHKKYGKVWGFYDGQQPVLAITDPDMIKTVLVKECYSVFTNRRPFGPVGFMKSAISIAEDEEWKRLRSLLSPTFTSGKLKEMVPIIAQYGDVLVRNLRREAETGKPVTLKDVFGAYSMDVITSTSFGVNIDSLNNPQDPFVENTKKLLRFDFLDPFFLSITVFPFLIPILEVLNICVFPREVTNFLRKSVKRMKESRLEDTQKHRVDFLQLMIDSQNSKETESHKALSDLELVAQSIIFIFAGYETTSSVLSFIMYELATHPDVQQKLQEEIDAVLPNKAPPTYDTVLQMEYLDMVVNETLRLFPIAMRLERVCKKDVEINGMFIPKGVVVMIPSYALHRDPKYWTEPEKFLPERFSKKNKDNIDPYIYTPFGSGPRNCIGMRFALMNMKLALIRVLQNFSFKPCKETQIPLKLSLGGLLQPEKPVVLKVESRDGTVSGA

Cytochrome P450 1A1 = target: T4, Cytochrome P450 1A1 (Homo sapiens, UniProt P04798); assay: Inhibition of human CYP1A1 expressed in HEK293 cells using fluorogenic substrate 7-ethoxyresorufin as substrate preincubated for 30 mins followed by substrate addition measured for 60 mins by fluorescence assay; assay type: cell-based
T4 sequence (P04798 whole entry): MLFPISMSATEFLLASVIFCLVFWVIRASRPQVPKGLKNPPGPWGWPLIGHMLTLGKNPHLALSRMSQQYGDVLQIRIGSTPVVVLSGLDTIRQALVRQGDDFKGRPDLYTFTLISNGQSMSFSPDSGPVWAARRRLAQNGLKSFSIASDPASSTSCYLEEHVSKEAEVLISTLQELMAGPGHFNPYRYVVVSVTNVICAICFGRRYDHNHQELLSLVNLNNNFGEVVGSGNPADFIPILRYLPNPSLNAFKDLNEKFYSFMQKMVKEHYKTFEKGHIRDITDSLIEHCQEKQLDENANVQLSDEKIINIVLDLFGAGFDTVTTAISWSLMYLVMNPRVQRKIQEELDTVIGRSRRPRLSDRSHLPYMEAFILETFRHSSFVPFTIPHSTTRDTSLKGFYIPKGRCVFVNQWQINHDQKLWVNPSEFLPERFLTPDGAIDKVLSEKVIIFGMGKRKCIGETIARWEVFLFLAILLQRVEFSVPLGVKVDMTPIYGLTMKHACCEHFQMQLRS

Cytochrome P450 1B1 = target: T5, Cytochrome P450 1B1 (Homo sapiens, UniProt Q16678); assay: Inhibition of human CYP1B1 expressed in HEK293 cells using fluorogenic 7-ethoxyresorufin as substrate preincubated for 30 mins followed by substrate addition measured for 60 mins by fluorescence assay; assay type: cell-based
T5 sequence (Q16678 whole entry): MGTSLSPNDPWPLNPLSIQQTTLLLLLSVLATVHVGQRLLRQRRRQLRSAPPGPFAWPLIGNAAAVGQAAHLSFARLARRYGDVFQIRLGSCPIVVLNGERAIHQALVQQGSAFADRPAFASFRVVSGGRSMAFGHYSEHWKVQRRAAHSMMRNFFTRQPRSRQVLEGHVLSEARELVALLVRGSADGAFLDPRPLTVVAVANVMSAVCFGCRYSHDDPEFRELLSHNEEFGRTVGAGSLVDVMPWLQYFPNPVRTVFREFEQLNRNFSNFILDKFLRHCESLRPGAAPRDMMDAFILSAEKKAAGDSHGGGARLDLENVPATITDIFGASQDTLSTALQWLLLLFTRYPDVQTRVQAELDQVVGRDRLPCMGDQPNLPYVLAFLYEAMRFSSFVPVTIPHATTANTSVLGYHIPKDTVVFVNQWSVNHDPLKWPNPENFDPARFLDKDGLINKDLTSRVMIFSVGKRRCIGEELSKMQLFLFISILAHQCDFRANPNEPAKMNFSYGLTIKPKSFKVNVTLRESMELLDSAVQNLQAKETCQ

Cytochrome P450 2D6 [4] = target: T2, Cytochrome P450 2D6; assay: Inhibition of human CYP2D6 expressed in HEK293 cells using fluorogenic 7-ethoxy-methyloxy-3-cyanocoumarin as substrate preincubated for 30 mins followed by substrate addition measured for 60 mins by fluorescence assay; assay type: ADME, cell-based
Cytochrome P450 3A4 [5] = target: T3, Cytochrome P450 3A4; assay: Inhibition of human CYP3A4 expressed in HEK293 cells using fluorogenic dibenzylfluorescein as substrate preincubated for 30 mins followed by substrate addition measured for 60 mins by fluorescence assay; assay type: ADME, cell-based
Homo sapiens [6] = species: Homo sapiens; assay: Selectivity ratio of IC50 for human CYP2C9 bound to yeast microsomal membrane to IC50 for human CYP1A2 bound to yeast microsomal membrane
Homo sapiens [7] = species: Homo sapiens; assay: Selectivity ratio of IC50 for human CYP2C9 bound to yeast microsomal membrane to IC50 for human CYP1B1 bound to yeast microsomal membrane
[8] = Selectivity ratio of IC50 for human CYP2D6 expressed in HEK293 cells to IC50 for human CYP1A1 expressed in HEK293 cells
[9] = Selectivity ratio of IC50 for human CYP2C19 expressed in HEK293 cells to IC50 for human CYP1A1 expressed in HEK293 cells
[10] = Selectivity ratio of IC50 for human CYP2D6 expressed in HEK293 cells to IC50 for human CYP1A2 expressed in HEK293 cells
[11] = Selectivity ratio of IC50 for human CYP2C19 expressed in HEK293 cells to IC50 for human CYP1A2 expressed in HEK293 cells
[12] = Selectivity ratio of IC50 for human CYP2C19 expressed in HEK293 cells to IC50 for human CYP1B1 expressed in HEK293 cells

Activity [1] [U] | pIC50 (Cytochrome P450 2D6 [2]) | pIC50 (Cytochrome P450 2C9) | pIC50 (Cytochrome P450 3A4 [3]) | pIC50 (Cytochrome P450 1A1) | pIC50 (Cytochrome P450 1B1) | pIC50 (Cytochrome P450 2D6 [4]) | pIC50 (Cytochrome P450 3A4 [5]) | SMILES | Ratio IC50 (Homo sapiens [6]) | Ratio IC50 (Homo sapiens [7]) | Ratio IC50 [8] | Ratio IC50 [9] | Ratio IC50 [10] | Ratio IC50 [11] | Ratio IC50 [12]
455 | 4.92 | < 4.70 | < 4.70 | < 4.70 | 6.60 | < 5.00 | < 5.00 | O=C(/C=C/c1ccccc1Cl)c1ccc[nH]1 | > 20 | > 20 | >20 | >20 | >20 | >20 | >20
150 | 4.70 | < 4.70 | < 4.70 | 5.92 | 5.92 | 4.70 | < 5.00 | COc1ccccc1/C=C/C(=O)c1ccc[nH]1 | > 20 | > 20 | >20 | >20 | >20 | >20 | >20
955 | 4.80 | < 4.70 | < 4.70 | < 4.70 | < 4.70 | < 4.70 | < 4.70 | O=C(/C=C/c1ccc(OC(F)(F)F)cc1)c1ccc[nH]1 | – | – | – | – | – | – | –

Source: ChEMBL document CHEMBL4052762, “Synthesis and biological evaluation of pyrrole-based chalcones as CYP1 enzyme inhibitors, for possible prevention of cancer and overcoming cisplatin resistance” (Bioorg Med Chem Lett, 2017)
